Test results: patent publication US8211937B2, “7-pyrollyl 9-aminoacyl tetracycline compounds and methods of use thereof” (Paratek Pharmaceuticals, Inc., priority 2001, dated 2012)
Values after ≈ are worked out from the molar mass of the structure shown.

Key:
Assay in all cases: MIC, broth microdilution growth inhibition
Assay type in all cases: cell-based
Details in all cases: Mueller-Hinton broth, 37° C., 18 h, unit assumed
[1] = test system: A. calcoaceticus 1726
Description: (§1) Growth inhibitory activity was determined on liquid medium by the antibiotic dilution technique using 96-well microtiter system plates containing two-fold dilutions of antibiotic-agent in 0.2 ml. of Mueller-Hinton broth. Plates were inoculated with each test organism to yield a final inoculum of 5×10^5 CFU/ml and were incubated aerobically at 37° C. for 18 h. The MIC was defined as the lowest concentration of antibacterial agent that inhibited development of visible growth in the microdilution wells. GAR936 can be prepared e.g. as in J. Med Chem 1994, 37 184-188. Minocyline is available from e.g. Aldrich.

[2] = test system: E. coli 851E
Description: as §1

[3] = test system: E. coli 851ML308-225
Description: as §1

[4] = test system: E. coli D1-209 Tet R
Description: as §1

[5] = test system: E. coli D1-299 Tet R
Description: as §1

[6] = test system: E. faecalis 73 Tet R
Description: as §1

[7] = test system: E. faecalis ATCC 29212
Description: as §1

[8] = test system: E. faecium 494
Description: as §1

[9] = test system: E. faecium 97 Tet R
Description: as §1

[10] = test system: H. influenzae ATCC 4927
Description: as §1

[11] = test system: K. Pneumoniae 3226
Description: as §1

[12] = test system: M. catarrhalis ATCC 23246
Description: as §1

[13] = test system: P. aeruginosa 3808
Description: as §1

[14] = test system: S. aureus ATCC 29213
Description: as §1

[15] = test system: S. aureus GFX01596 Tet R
Description: as §1

[16] = test system: S. pneumoniae 157
Description: as §1

[17] = test system: S. pneumoniae GFX01778 Tet R
Description: as §1

For `CN(C)[C@@H]1C(O)=C(C(N)=O)C(=O)[C@@]2(O)C(O)=C3C(=O)c4c(O)ccc(-n5ccc(C#N)c5)c4C[C@H]3C[C@@H]12` [Compound A, [4S-(4aα,5aα,12aα)]-7-(3-Cyanopyrrol-1-yl)-4-(Dimethylamino)-1,4,4a,5,5a,6,11,12a-octahydro-3,10,12,12a-tetrahydroxy-1,11-dioxo-2-naphthacenecarboxamide], the MIC [1] was 8 µg/mL (≈ 15.9 µM), the MIC [2] was 1 µg/mL (≈ 1.98 µM) and the MIC [3] was 0.5 µg/mL (≈ 0.991 µM). It also gave an MIC [4] of 16 µg/mL (≈ 31.7 µM), an MIC [5] of 4 µg/mL (≈ 7.93 µM) and an MIC [6] of 4 µg/mL (≈ 7.93 µM). The MIC [7] was 2 µg/mL (≈ 3.96 µM), the MIC [8] was 8 µg/mL (≈ 15.9 µM) and the MIC [9] was 8 µg/mL (≈ 15.9 µM). The MIC [10] was 0.5 µg/mL (≈ 0.991 µM), the MIC [11] was > 128 µg/mL and the MIC [12] was 0.001 µg/mL (≈ 0.00198 µM). The MIC [13] was > 128 µg/mL, the MIC [14] was 0.015 µg/mL (≈ 0.0297 µM) and the MIC [15] was 0.5 µg/mL (≈ 0.991 µM). For the same compound, the MIC [16] was 0.015 µg/mL (≈ 0.0297 µM) and the MIC [17] was 2 µg/mL (≈ 3.96 µM).

For `CN(C)[C@@H]1C(O)=C(C(N)=O)C(=O)[C@@]2(O)C(O)=C3C(=O)c4c(O)ccc(-n5ccc(C=O)c5)c4C[C@H]3C[C@@H]12` [Compound B, [4S-(4aα,5aα,12aα)]-4-(Dimethylamino)-7-(1H-pyrrol-1-yl-3-carboxaldehyde)-1,4,4a,5,5a,6,11,12a-octahydro-3,10,12,12a-tetrahydroxy-1,11-dioxo-2-naphthacenecarboxamide], the MIC [1] was > 128 µg/mL, the MIC [2] was 1 µg/mL (≈ 1.97 µM) and the MIC [3] was 0.5 µg/mL (≈ 0.985 µM). For the same compound, the MIC [4] was > 128 µg/mL, the MIC [5] was 32 µg/mL (≈ 63.1 µM) and the MIC [6] was 8 µg/mL (≈ 15.8 µM). The MIC [7] was 2 µg/mL (≈ 3.94 µM), the MIC [8] was 32 µg/mL (≈ 63.1 µM) and the MIC [9] was > 128 µg/mL. The MIC [10] was 1 µg/mL (≈ 1.97 µM), the MIC [11] was > 128 µg/mL and the MIC [12] was 0.008 µg/mL (≈ 0.0158 µM). The MIC [13] was > 128 µg/mL, the MIC [14] was 0.015 µg/mL (≈ 0.0296 µM) and the MIC [15] was 0.25 µg/mL (≈ 0.493 µM). It also gave an MIC [16] of 0.015 µg/mL (≈ 0.0296 µM) and an MIC [17] of 2 µg/mL (≈ 3.94 µM).

In the case of `CN(C)CC(=O)Nc1cc(-n2ccc(C=O)c2)c2c(c1O)C(=O)C1=C(O)[C@]3(O)C(=O)C(C(N)=O)=C(O)[C@@H](N(C)C)[C@@H]3C[C@@H]1C2` [Compound C], the MIC [1] is reported as 16 µg/mL (≈ 26.3 µM), the MIC [2] is reported as 1 µg/mL (≈ 1.65 µM) and the MIC [3] is reported as 0.03 µg/mL (≈ 0.0494 µM). The MIC [4] was 1 µg/mL (≈ 1.65 µM), the MIC [5] was 16 µg/mL (≈ 26.3 µM) and the MIC [6] was 0.004 µg/mL (≈ 0.00658 µM). It also gave an MIC [7] of 0.125 µg/mL (≈ 0.206 µM), an MIC [8] of 0.25 µg/mL (≈ 0.411 µM) and an MIC [9] of 0.06 µg/mL (≈ 0.0987 µM). It also gave an MIC [10] of 1 µg/mL (≈ 1.65 µM), an MIC [11] of 125 µg/mL (≈ 206 µM) and an MIC [12] of 0.002 µg/mL (≈ 0.00329 µM). For the same compound, the MIC [13] was 32 µg/mL (≈ 52.7 µM), the MIC [14] was 0.125 µg/mL (≈ 0.206 µM) and the MIC [15] was 4 µg/mL (≈ 6.58 µM). The MIC [16] was 0.015 µg/mL (≈ 0.0247 µM) and the MIC [17] was 0.03 µg/mL (≈ 0.0494 µM).

In the case of `CN(C)c1cc(NC(=O)CNC(C)(C)C)c(O)c2c1C[C@H]1C[C@H]3[C@H](N(C)C)C(O)=C(C(N)=O)C(=O)[C@@]3(O)C(O)=C1C2=O` [GAR-936], the MIC [1] is reported as 32 µg/mL (≈ 54.6 µM), the MIC [2] is reported as 1 µg/mL (≈ 1.71 µM) and the MIC [4] is reported as 0.5 µg/mL (≈ 0.854 µM). For the same compound, the MIC [5] was 0.5 µg/mL (≈ 0.854 µM), the MIC [6] was 0.5 µg/mL (≈ 0.854 µM) and the MIC [7] was 0.5 µg/mL (≈ 0.854 µM). The MIC [8] was 0.5 µg/mL (≈ 0.854 µM), the MIC [9] was 0.5 µg/mL (≈ 0.854 µM) and the MIC [10] was 1 µg/mL (≈ 1.71 µM). It also gave an MIC [11] of 2 µg/mL (≈ 3.41 µM), an MIC [12] of 0.12 µg/mL (≈ 0.205 µM) and an MIC [13] of 32 µg/mL (≈ 54.6 µM). For the same compound, the MIC [14] was 0.5 µg/mL (≈ 0.854 µM), the MIC [15] was 1 µg/mL (≈ 1.71 µM) and the MIC [16] was 0.25 µg/mL (≈ 0.427 µM). The MIC [17] was 0.06 µg/mL (≈ 0.102 µM).

`CN(C)c1ccc(O)c2c1C[C@H]1C[C@H]3[C@H](N(C)C)C(=O)C(C(N)=O)=C(O)[C@@]3(O)C(=O)C1=C2O` [MINO, Minocyline] showed an MIC [1] of 1 µg/mL (≈ 2.19 µM), an MIC [2] of 0.5 µg/mL (≈ 1.09 µM) and an MIC [3] of 0.25 µg/mL (≈ 0.546 µM). It also gave an MIC [4] of 16 µg/mL (≈ 35 µM), an MIC [5] of 1 µg/mL (≈ 2.19 µM) and an MIC [6] of 32 µg/mL (≈ 69.9 µM). The MIC [7] was 2 µg/mL (≈ 4.37 µM), the MIC [8] was 32 µg/mL (≈ 69.9 µM) and the MIC [9] was 32 µg/mL (≈ 69.9 µM). For the same compound, the MIC [10] was 0.5 µg/mL (≈ 1.09 µM), the MIC [11] was 32 µg/mL (≈ 69.9 µM) and the MIC [12] was 0.001 µg/mL (≈ 0.00219 µM). It also gave an MIC [13] of 16 µg/mL (≈ 35 µM), an MIC [14] of 0.03 µg/mL (≈ 0.0656 µM) and an MIC [15] of 0.12 µg/mL (≈ 0.262 µM). It also gave an MIC [16] of 0.5 µg/mL (≈ 1.09 µM) and an MIC [17] of 16 µg/mL (≈ 35 µM).
